Test results from publication PMC6002741 (British Journal of Pharmacology, 2018).
Blank lines part the entries; values can stand above or below the molecule they belong to.

Legend:
Assay type in all cases: cell-based
TRPM4 [1] = target: T1, TRPM4 (Homo sapiens, UniProt Q8TD43)
TRPM4 [2] = target: T1, TRPM4; test: Na+ influx screening assay
TRPM5 = target: T2, TRPM5 (Homo sapiens, UniProt Q9NZQ8); test: Excised membrane voltage clamp recordings on HEK293 cells expressing TRPM5; conditions: excised patches, 50 μM free Ca2+, +100 mV
T2 sequence (Q9NZQ8 1-1165): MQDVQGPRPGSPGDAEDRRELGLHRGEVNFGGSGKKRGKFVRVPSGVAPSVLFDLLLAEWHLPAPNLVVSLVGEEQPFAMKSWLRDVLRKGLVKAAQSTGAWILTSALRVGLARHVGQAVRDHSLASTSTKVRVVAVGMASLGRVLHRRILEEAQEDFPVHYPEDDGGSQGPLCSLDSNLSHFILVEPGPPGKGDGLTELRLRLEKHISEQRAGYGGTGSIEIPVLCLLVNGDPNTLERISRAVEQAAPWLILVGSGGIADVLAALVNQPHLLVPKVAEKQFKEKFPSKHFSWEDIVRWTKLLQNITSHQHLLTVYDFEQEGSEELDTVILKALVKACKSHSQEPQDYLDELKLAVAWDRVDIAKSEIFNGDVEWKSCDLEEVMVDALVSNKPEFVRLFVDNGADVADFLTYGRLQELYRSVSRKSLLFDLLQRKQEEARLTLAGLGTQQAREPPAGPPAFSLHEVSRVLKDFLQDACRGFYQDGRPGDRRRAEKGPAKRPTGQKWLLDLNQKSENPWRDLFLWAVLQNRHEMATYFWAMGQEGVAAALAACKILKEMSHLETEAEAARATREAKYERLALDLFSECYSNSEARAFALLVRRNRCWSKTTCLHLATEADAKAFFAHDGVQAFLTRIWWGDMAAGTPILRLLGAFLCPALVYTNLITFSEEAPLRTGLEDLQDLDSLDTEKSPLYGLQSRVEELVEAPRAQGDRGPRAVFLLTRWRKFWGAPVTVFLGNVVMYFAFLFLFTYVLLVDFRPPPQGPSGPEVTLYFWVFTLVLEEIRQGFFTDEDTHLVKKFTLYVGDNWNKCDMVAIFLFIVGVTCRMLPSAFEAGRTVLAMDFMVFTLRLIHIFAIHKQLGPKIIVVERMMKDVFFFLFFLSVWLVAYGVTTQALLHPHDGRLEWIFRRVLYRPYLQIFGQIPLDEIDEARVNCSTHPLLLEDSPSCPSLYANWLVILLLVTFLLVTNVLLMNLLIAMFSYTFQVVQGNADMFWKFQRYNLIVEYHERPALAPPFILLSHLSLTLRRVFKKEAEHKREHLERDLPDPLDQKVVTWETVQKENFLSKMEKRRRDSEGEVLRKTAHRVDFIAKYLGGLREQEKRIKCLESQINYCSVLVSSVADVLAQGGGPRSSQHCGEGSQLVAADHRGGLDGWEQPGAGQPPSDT

TRPM4 A432T = TRPM4 A432T (Homo sapiens, UniProt Q8TD43, A432T); test: Western blot of total and surface expression of TRPM4 A432T variant; conditions: 50 μM overnight, HEK293
TRPM4 A432T, sequence (Q8TD43 whole entry A432T): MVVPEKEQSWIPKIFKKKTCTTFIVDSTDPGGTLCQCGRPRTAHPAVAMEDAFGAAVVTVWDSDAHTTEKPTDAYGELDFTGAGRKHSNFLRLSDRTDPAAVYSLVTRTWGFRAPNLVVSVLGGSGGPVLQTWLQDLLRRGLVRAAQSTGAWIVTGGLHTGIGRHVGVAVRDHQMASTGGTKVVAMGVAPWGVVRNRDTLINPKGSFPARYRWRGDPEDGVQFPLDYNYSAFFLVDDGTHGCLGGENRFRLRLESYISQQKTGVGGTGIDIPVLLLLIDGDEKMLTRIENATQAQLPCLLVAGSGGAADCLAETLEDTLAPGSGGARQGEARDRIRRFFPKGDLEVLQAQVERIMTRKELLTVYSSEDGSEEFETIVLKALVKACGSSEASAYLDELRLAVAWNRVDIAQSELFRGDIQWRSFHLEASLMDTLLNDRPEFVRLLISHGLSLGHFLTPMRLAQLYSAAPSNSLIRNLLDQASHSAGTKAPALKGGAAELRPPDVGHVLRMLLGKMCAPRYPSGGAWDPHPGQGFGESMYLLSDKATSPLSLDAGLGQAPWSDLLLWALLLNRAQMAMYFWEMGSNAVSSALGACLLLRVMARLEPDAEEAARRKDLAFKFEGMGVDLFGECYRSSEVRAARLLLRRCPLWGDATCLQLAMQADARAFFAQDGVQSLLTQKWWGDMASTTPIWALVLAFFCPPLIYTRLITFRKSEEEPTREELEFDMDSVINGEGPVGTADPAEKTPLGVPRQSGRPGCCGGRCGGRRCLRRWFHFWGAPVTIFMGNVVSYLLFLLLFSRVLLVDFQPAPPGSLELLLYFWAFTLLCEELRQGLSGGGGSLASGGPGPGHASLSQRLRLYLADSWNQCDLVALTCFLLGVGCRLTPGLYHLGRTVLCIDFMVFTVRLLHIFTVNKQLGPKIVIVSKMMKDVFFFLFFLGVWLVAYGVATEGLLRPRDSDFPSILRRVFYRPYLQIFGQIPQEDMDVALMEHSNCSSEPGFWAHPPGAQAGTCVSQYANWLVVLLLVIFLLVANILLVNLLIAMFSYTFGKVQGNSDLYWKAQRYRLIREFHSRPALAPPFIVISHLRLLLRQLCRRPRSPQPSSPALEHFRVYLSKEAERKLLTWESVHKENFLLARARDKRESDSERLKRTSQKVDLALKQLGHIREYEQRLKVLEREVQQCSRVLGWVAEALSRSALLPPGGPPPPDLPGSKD

T1 sequence (Q8TD43 whole entry): as the sequence (Q8TD43 whole entry A432T) above, with T432A counted along it

Structure (SMILES): Oc1cc2ccccc2c2ccccc12 [9-phenanthrol, reference compound]
- IC50 (TRPM4 [1]): 17 ± 2.8 µM

- effect on TRPM5 current (TRPM5): variable potentiating effect
Structure (SMILES): Cc1cc(Cl)ccc1OC(C)C(=O)Nc1cc(Cl)ccc1C(=O)O (stereo not shown) [Compound 4]
- inhibitory activity on TRPM4-mediated Na+ influx, hit confirmation (TRPM4 [2]; 5 μM, repurchased solid samples): confirmed their inhibitory activity
- IC50 (TRPM4 [1]): 1 ± 0.2 µM
- inhibition of TRPM4 current on application to the cytosolic side (TRPM4 [1]; 1 μM on cytosolic side of excised patches, washout): reversible inhibition

Structure (SMILES): O=C(COc1ccccc1Cl)Nc1cc(Br)ccc1C(=O)O [Compound 11]
- IC50 (TRPM4 [1]): 1.6 ± 0.5 µM

Structure (SMILES): Cc1cc(Cl)ccc1OCC(=O)Nc1cc(Cl)ccc1C(=O)O [Compound 51]
- TRPM4 inhibitory activity in words (SAR) (TRPM4 [2]; Na+ influx, Supporting Information Table S3 / text): no inhibitory activity
- rescue of A432T total and surface expression (TRPM4 A432T): did not restore the expression

Structure (SMILES): O=C(O)c1ccccc1Nc1cccc(C(F)(F)F)c1 [FFA, flufenamic acid, reference compound]
- IC50 (TRPM4 [1]): 9.2 ± 1.2 µM

- effect on TRPM5 current (positive control) (TRPM5; 20 μM): inhibited TRPM5 current
Structure (SMILES): O=P(c1ccccc1)(c1ccccc1)c1ccccc1 [TPPO, triphenylphosphine oxide, reference compound]
